Format in all cases: biochemical
Assay [1] addresses T1, PfAsnRS (Plasmodium falciparum cytoplasmic asparaginyl tRNA synthetase) (Plasmodium falciparum, UniProt O96198).
T1 construct: gene PF3D7_0211800; recombinant wildtype PfAsnRS, His-tag removed
Briefly: ATP consumption assay of recombinant enzyme.

Assay [2] deals with T1, PfAsnRS (Plasmodium falciparum cytoplasmic asparaginyl tRNA synthetase). Briefly: ATP consumption assay of recombinant enzyme without tRNA, synthetic adduct.
Assay [3] deals with T2, PfAsnRS (Plasmodium falciparum cytoplasmic asparaginyl tRNA synthetase) (Plasmodium falciparum, UniProt O96198, R487S).
T2 construct: gene PF3D7_0211800; recombinant PfAsnRSR487S
T2 sequence (O96198 1-610 R487S): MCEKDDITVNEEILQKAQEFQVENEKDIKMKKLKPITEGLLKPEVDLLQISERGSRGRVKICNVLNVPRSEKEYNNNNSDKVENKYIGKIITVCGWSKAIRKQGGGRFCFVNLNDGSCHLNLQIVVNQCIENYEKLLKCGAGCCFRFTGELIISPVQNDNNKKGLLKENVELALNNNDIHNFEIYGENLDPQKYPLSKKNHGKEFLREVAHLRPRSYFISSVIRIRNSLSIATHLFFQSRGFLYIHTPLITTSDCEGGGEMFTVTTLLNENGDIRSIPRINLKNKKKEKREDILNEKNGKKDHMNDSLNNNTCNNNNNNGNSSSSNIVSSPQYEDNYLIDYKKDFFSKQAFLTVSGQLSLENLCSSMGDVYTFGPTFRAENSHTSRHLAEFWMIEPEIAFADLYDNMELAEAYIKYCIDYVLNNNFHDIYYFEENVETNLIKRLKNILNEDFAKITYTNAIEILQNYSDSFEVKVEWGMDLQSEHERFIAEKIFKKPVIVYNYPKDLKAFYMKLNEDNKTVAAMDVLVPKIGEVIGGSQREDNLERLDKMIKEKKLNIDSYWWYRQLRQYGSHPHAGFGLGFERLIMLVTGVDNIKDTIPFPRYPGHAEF
Briefly: ATP consumption assay of recombinant mutant enzyme with tRNA.

In assay [4] the target is T1, PfAsnRS (Plasmodium falciparum cytoplasmic asparaginyl tRNA synthetase). Briefly: ATP consumption assay of recombinant enzyme with tRNA; Asn adduct found by LC-MS.

Turning to `Nc1ncnc2c1ncn2[C@@H]1O[C@H](COS(N)(=O)=O)[C@@H](O)[C@H]1O` [AMS, adenosine 5’-sulfamate], in assay [1], the half-maximal inhibitory concentration (IC50) (as a rule, the concentration that gives 50% inhibition) is 0.0037 µM.
Consider `NC(=O)C[C@H](N)C(=O)NS(=O)(=O)c1cccc(-c2cc3ncnc(N)c3s2)c1` [Asn-OSM-S-106], for which the half-inhibitory concentration (IC50) in assay [2] is reported as 2.6 / 3.3 μM.
For `Nc1ncnc2cc(-c3cccc(S(N)(=O)=O)c3)sc12` [OSM-S-106], the IC50 in assay [3] was 26.3 µM; in assay [4], 3.6 µM.

The values above are taken from article PMC10402266, “Reaction hijacking inhibition of Plasmodium falciparum asparagine tRNA synthetase” (Research Square, 2023).
